pIC50, pKi: −log10 of the molar value.

The target of assay [1] is T1, Glutathione S-transferase P (Homo sapiens, UniProt P09211). Briefly: Inhibition against glutathione S-transferase pi using GSH (0.1-3mM), 1 mM 1-chloro-2,4-dinitrobenzene.
Assay [2] deals with T1, Glutathione S-transferase P. Nature of the assay: Inhibition constant against glutathione S-transferase pi using GSH (0.1-3mM), 1 mM 1-chloro-2,4-dinitrobenzene.

T1 sequence (P09211 whole entry): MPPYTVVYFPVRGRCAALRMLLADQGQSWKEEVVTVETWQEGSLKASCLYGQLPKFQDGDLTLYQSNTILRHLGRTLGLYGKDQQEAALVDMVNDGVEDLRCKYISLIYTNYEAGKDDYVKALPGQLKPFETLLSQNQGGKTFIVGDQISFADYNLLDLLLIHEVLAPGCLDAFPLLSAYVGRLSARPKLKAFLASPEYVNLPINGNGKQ

Regarding `NC(CCC(=O)NC(CSC(C(=O)O)c1ccccc1)C(=O)NCC(=O)O)C(=O)O` (stereo not drawn), in assay [1], the pIC50 (usually the negative decadic logarithm of the IC50, by convention in mol/L) is 5.26. Also, in assay [2], the negative-log Ki (pKi) – broadly, the Ki on a negative log10 scale, so that one unit is a factor of ten – is 6.18.
In assay [1], `NC(CCC(=O)NC(CSC(CO)c1ccccc1)C(=O)NCC(=O)O)C(=O)O` (stereo not drawn) gave a pIC50 of 5.05. The molecule also had a negative logarithm of the Ki (pKi) in assay [2] of 5.95.
The like results for `NC(CCC(=O)NC(CSCC(O)c1ccccc1)C(=O)NCC(=O)O)C(=O)O` (stereo not drawn) were, in that order, 5.33 and 6.31.
In assay [1], `NC(CCC(=O)NC(CSCCO)C(=O)NCC(=O)O)C(=O)O` (stereo not drawn) had a pIC50 of 3.55. Also, in assay [2], the pKi is 3.73.

The values above are taken from ChEMBL document CHEMBL1140414, “Molecular modeling, synthesis, and preliminary biological evaluation of glutathione-S-transferase inhibitors as potential therapeutic agents” (J Med Chem, 2005).
